Our source for the absolute bioavailability and Tg values is US8691872B2 (Teva Pharmaceutical Industries Ltd., priority 2010, dated 2014).

Like-named read-outs stand apart in the source and are kept apart here.

The conditions of data set [1]: AZILECT; cited from earlier work.
The procedure of data set [2]:
As used herein, a “glass transition temperature (Tg)” of a solid is the temperature where the solid goes from a rigid state to a flexible state. At Tg, a polymer undergoes a phase transition from a hard, glass-like state to a flexible, rubber-like state. The Tg temperature values listed herein were determined based upon half-height of the step change or “S” shape curve seen in DSC data.
Dispersions were prepared using several techniques including rotary evaporation from solution, cryogrinding dry components and lyophilization. Samples were analyzed by modulated Differential Scanning calorimetry (DSC) to determine glass transition temperatures (Tg). A slight excess of citric acid was used in most dispersions i.e. 0.7:1 mol of rasagiline: citric acid.
In the following experiment, rasagiline base was mixed with citric acid (1:1 mol:mol) and then methanol was added to the mixture. After stirring and complete dissolution of solids, the solution was evaporated under vacuum in rotary evaporator at bath temperature 60° C.

The nature of data set [3]: Modulated DSC (MDSC), glass transition temperature (Tg). The data set is classed as physicochemical. The settings on record: Table 1.

With `C#CCN[C@@H]1CCc2ccccc21` [Rasagiline, R(+)-N-propargyl-1-aminoindan], the absolute bioavailability entry in data set [1] is “about 36%”.

With `C#CCN[C@@H]1CCc2ccccc21.O=C(O)CC(O)(CC(=O)O)C(=O)O` [Sample 1, mono-rasagiline citrate], the Tg in data set [2] (by DSC) is approximately 17 °C; in data set [2] (cyclic DSC) it was “Tg = 18 °C”; in data set [3], “Tg = 16 °C”.
